Experimental data from patent US20110230471A1, “BENZONAPHTYRIDINE COMPOUNDS AS INHIBITORS OF AUTOTAXIN” (MERCK PATENT GESELLSCHAFT MIT BESCHRANKTER HAFTUNG, priority 2008, published 2011).

The compounds below were run against T1, recombinant autotaxin (Homo sapiens, UniProt Q13822) (assay: Autotaxin test (enzyme test), Amplex Red). Conditions: Autotaxin inhibition (enzyme test), TABLE 1 (A compounds); substrate LPC 75 μM.
T1 construct: made in house; host or cells: Hi5 insect cells (baculovirus)
Type: biochemical
In short: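 Compound pre-incubated 30 min at 22° C with 16 ng baculovirus (Hi5)-expressed autotaxin, then LPC added (75 μM final) for 90 min at 37° C. Choline released detected via choline oxidase/peroxidase/Amplex Red coupling; resorufin fluorescence (ex 485, em 612 nm) read in kinetic mode, Tris buffer pH 7.9 with 0.1% lipid-free BSA.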

IC50	Structure (SMILES)
100 to 1000 nM	COc1ccc(Cl)cc1NC(=O)CN1CCc2nc3ccccc3c(C(=O)N3CCCN(Cc4ccccc4)CC3)c2C1 [Compound A26, 2-[10-(4-Benzyl-1,4-diazepan-1-carbonyl)-3,4-dihydro-1H-benzo[b][1,6]-naphthyridin-2-yl]-N-(5-chloro-2-methoxyphenyl)acetamide]
< 100 nM	COc1ccc(Cl)cc1NC(=O)CN1CCc2nc3ccccc3c(C(=O)N3CCN(CCN4CCOCC4)CC3)c2C1 [Compound A68, N-(5-Chloro-2-methoxyphenyl)-2-{10-[4-(2-morpholin-4-ylethyl)piperazine-1-carbonyl]-3,4-dihydro-1H-benzo[b][1,6]naphthyridin-2-yl}acetamide]
> 1000 nM	O=C(CN1CCc2nc3ccccc3c(C(=O)N3CCN(CCO)CC3)c2C1)Nc1cc(Cl)cc2ncoc12 [Compound A79, N-(5-Chlorobenzooxazol-7-yl)-2-{10-[4-(2-hydroxyethyl)piperazine-1-carbonyl]-3,4-dihydro-1H-benzo[b][1,6]naphthyridin-2-yl}acetamide]
< 100 nM	COc1ccc(Cl)cc1NC(=O)CN1CCc2nc3ccccc3c(C(=O)N3CCN(CCN4CCCCC4)CC3)c2C1 [Compound A66, N-(5-Chloro-2-methoxyphenyl)-2-{10-[4-(2-piperidin-1-ylethyl)piperazine-1-carbonyl]-3,4-dihydro-1H-benzo[b][1,6]naphthyridin-2-yl}acetamide]

Same assay, conditions: Autotaxin inhibition (enzyme test), TABLE 2 (B compounds); substrate LPC 75 μM

IC50	Structure (SMILES)
> 1000 nM	COc1ccc(Cl)cc1-c1nnc(CN2CCc3nc4ccccc4c(C(=O)NC4CCN(C)CC4)c3C2)o1 [Compound B33, N-(1-Methylpiperidin-4-yl)-2-[5-(5-chloro-2-methoxyphenyl)-1,3,4-oxadiazol-2-ylmethyl]-1,2,3,4-tetrahydrobenzo[b][1,6]naphthyridine-10-carboxamide]
> 1000 nM	CSc1ccc(Cl)cc1NC(=O)CN1CCc2nc3ccccc3c(C(=O)N3CCN(CCO)CC3)c2C1 [Compound B17, N-(5-Chloro-2-methylsulfanylphenyl)-2-{10-[4-(2-hydroxyethyl)piperazine-1-carbonyl]-3,4-dihydro-1H-benzo[b][1,6]naphthyridin-2-yl}acetamide]
> 1000 nM	COc1ccc(Cl)cc1NCCN1CCc2nc3ccccc3c(C(=O)N3CCN(CCO)CC3)c2C1 [Compound B14, {2-[2-(5-Chloro-2-methoxyphenylamino)ethyl]-1,2,3,4-tetrahydrobenzo-[b][1,6]naphthyridin-10-yl}-[4-(2-hydroxyethyl)piperazin-1-yl]methanone]
